The experiment concerns the target T1, Ci-GlyR (Ciona intestinalis, UniProt D2KU21).
T1 construct: single subunit expressed alone; no tag stated; cDNA from hatched larvae
T1 sequence (D2KU21 25-491): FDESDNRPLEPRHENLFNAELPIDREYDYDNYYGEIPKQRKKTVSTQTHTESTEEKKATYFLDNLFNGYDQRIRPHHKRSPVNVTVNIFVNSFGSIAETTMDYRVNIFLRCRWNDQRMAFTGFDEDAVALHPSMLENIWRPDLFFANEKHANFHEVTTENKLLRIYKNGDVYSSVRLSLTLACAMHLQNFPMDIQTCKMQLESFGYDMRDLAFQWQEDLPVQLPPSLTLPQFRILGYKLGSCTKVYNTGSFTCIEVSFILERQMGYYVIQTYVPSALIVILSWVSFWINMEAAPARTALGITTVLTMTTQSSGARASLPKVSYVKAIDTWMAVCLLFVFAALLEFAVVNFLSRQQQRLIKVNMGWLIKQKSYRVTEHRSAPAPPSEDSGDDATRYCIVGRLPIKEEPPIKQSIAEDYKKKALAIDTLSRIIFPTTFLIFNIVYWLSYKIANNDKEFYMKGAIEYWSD
Kind of experiment: two-electrode voltage clamp, Xenopus oocytes. Format: cell-based. In general terms: Two-electrode voltage clamp holds a large cell at a set potential and records current.

Molecules are shown by their SMILES.

The term EC50 denotes the midpoint of the concentration-response curve. Low values mean greater potency, high ones weaker potency.

Turning to `NCC(=O)O` [glycine], the EC50 is ~750 µM.

The values above are taken from article PMC2822779, “A glycine receptor is involved in the organization of swimming movements in an invertebrate chordate” (BMC Neuroscience, 2010).
